Structures are written as SMILES.

The target of the first experiment is Serine/threonine-protein kinase PAK 6 (Homo sapiens) (UniProt Q9NQU5). Kind of experiment: PAK6 binders by thermal shift, biophysical, DSF, SYPRO orange, recombinant protein (AID 391). The following applies: at 10 µM, protein 2 µM, buffer 10 mM HEPES, pH 7.5, NaCl 150 mM, run set 1, active compounds read high.
Chain of Serine/threonine-protein kinase PAK 6 (Homo sapiens) (Q9NQU5 whole entry, looked up): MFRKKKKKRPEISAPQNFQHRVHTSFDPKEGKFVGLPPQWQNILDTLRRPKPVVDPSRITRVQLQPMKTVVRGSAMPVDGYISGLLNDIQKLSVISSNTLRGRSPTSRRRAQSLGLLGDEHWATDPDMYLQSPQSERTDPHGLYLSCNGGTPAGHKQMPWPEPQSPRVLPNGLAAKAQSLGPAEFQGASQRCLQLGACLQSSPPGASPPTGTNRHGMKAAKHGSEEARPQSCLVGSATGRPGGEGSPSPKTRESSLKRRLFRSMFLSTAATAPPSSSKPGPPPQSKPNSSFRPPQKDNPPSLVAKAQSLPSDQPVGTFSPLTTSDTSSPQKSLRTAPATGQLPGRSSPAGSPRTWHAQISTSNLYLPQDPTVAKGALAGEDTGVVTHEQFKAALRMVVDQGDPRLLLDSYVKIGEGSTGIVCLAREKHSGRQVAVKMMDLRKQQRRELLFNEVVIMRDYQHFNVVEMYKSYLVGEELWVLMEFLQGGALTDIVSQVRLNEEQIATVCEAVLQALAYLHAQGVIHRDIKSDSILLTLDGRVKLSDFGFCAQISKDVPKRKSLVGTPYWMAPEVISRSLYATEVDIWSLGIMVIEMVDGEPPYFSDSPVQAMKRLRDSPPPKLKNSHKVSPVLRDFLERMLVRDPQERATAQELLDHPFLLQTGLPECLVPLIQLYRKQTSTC
`O=C1Cc2c([nH]c3ccc(N(O)O)cc23)-c2ccccc2N1`: the Tm shift was 3.92 Celsius. The same measure, in the same setting: the same measure for `O=Nc1c(-c2c(O)[nH]c3ccc(S(O)(O)O)cc23)[nH]c2ccccc12`: 3.24 Celsius. Take `CC(C)C(CO)Nc1nc(Nc2cccc(Cl)c2)c2ncn(C(C)C)c2n1` (centres undefined): the Tm shift was 5.88 Celsius. Same read-out and setting: the figure for `O=C1NC(=O)c2c1c1c3ccccc3n3c1c1c2c2ccccc2n1[C@@H]1CCC3O1` is 6.44 Celsius.

Turning to `NCCCn1cc(C2=C(c3c[nH]c4ccccc34)C(=O)NC2=O)c2ccccc21`, the Tm shift was 4.48 Celsius. Take `CC(C)n1cnc2c(Nc3cccc(Cl)c3)nc(NCCO)nc21`: the Tm shift is 4.44 Celsius. The same measure, in the same setting: the figure for `N=C(N)SCCCn1cc(C2=C(c3c[nH]c4ccccc34)C(=O)NC2=O)c2ccccc21` is 3.13 Celsius; for `NC(=O)Nc1sc(-c2ccccc2)cc1C(N)=O` it is 3.43 Celsius.

The same experiment, now with this note: at 10 µM, protein 2 µM, buffer 10 mM HEPES, pH 7.5, NaCl 150 mM, run set 2, active compounds read high.
`NCCNc1ncc(C(N)=O)c(Nc2cccc(C(F)(F)F)c2)n1`: the Tm shift was 5.21 Celsius. On the same count and under the same terms, the same measure for `OCC(O)CCO/N=C1/C(c2c(O)[nH]c3ccccc23)=Nc2ccccc21` (centres undefined): 3.3 Celsius; for `CC(O)(O)C1(O)C[C@@H]2O[C@@]1(C)n1c3ccccc3c3c4c(c5c6ccccc6n2c5c31)C(=O)NC4` (some centres undefined): 7.7 Celsius.

Take `CCN(CC)CCNC(=O)c1c(C)[nH]c(/C=C2\C(=O)Nc3ccc(Cl)cc32)c1C`: the Tm shift was 3.8 Celsius.

As for `O=C1NCc2c1c1c3ccccc3[nH]c1c1[nH]c3ccccc3c21`, the Tm shift was 3.1 Celsius. Same read-out and setting: the figure for `N#Cc1ccc(-c2cnc3ccc(NC4CCOCC4)nn23)cc1` is 3.3 Celsius; for `Cc1cc(Nc2nc(-c3ccccc3)nc3ccccc23)n[nH]1` it is 5.45 Celsius. On the same count and under the same terms, the figure for `O=Nc1c(-c2c(O)[nH]c3ccccc23)[nH]c2ccccc12` is 8.7 Celsius. Turning to `Cn1cc(/C=C2\C(=O)Nc3ccc(S(N)(=O)=O)cc32)c2ccccc21`, the Tm shift is 4.26 Celsius. With `Clc1ccc(-c2cnc3ccc(NC4CCOCC4)nn23)cc1`, the Tm shift is 3.5 Celsius.

As to `O=Nc1c(-c2c(O)[nH]c3cc(Br)ccc23)[nH]c2ccccc12`, the Tm shift is 3.4 Celsius. Still for that read-out and setting: the figure for `NC(=O)c1ccc(-c2nc(-c3ccc4c(c3)OCCO4)c(-c3ccccn3)[nH]2)cc1` is 4.8 Celsius. On to `Nc1nc(Nc2ccc(S(N)(=O)=O)cc2)nn1C(=S)Nc1c(F)cccc1F`, for which the Tm shift is 5.64 Celsius. The same measure, in the same setting: the figure for `CCn1cnc2c(Nc3cccc(Cl)c3)nc(N[C@@H]3CCCC[C@@H]3N)nc21` is 7 Celsius; for `O=C1Cc2c([nH]c3ccc(Br)cc23)-c2ccccc2N1` it is 3.2 Celsius. Turning to `CC(C)n1cnc2c(Nc3cccc(Cl)c3)nc(NCCO)nc21`, the Tm shift was 3.2 Celsius.

The values above are taken from PubChem BioAssay AID391 (SGCOxCompounds, 2006).
